From publication PMC11106956 (Malaria Journal, 2024)
Read-outs that look alike come from different tables or passages of the source.

What was measured:
haemoglobin levels = assay: Linear regression of pharmacokinetic parameters against change in haemoglobin; haemoglobin follow-up to 28 days; assay type: in vivo, human (African males, Mali); conditions: for Correlation (regression slope) of AUC24 with change in haemoglobin / Correlation (regression slope) of CMAX with change in haemoglobin: slope (95% CI)
methaemoglobin levels = assay: Linear regression of pharmacokinetic parameters against change in methaemoglobin; assay type: in vivo, human (African males, Mali); conditions: slope (95% CI)
[1] = single oral PQ 0.40-0.50 mg/kg; for Half-life (terminal elimination): median (range) in Table 3; for CF, proportional conversion factor between capillary and venous drug measurements, population estimate (%RSE): plasma; for MTT, absorption mean transit time, population estimate (%RSE): each compound modelled separately
Description: (§1) This study was a part of an open-label, nonrandomized, dose-adjustment trial of the safety of SLD-PQ in G6PD-deficient and G6PD-normal males in Mali without microscopically detected malaria parasite infection. The main clinical trial was separated into two parts, i.e., Part I in adult males (aged 18–50) and Part II in children (aged 5–17). […] Only 28 adult males from the main trial provided pharmacokinetic samples and were included in this study.
(§2) After collection of day 0 samples, each participant received an oral dose of PQ according to his group assignment, after a fatty snack (biscuits) to minimized gastrointestinal symptoms. The study pharmacist prepared a dose by crushing a 15-mg tablet of PQ (Sanofi, Laval, Canada) in 15 mL of drinking water and administered the dose to the nearest 0.1 mL under direct observation. […] Capillary samples (0.5 mL) were collected at 2, 4, and 6 h post-dose. Both venous and capillary blood were collected using EDTA tubes, and centrifuged at 1100–1300×g for 10–20 min to obtain plasma samples. The samples were store immediately at − 80 °C until analysed.
(§3) All compounds were analysed using the liquid chromatography–mass spectrometry (LC–MS) method of Avula et al. [14], modified to employ an ACQUITY UHPLC™, BEH Shield RP18 column (100 mm × 2.1 mm I.D., 1.7 mm) equipped with an LC-18 guard column (Vanguard 2.1 × 5 mm, Waters Corp, Milford, MA, USA). PQ, CPQ and PQCG were separated and eluted within 10-min retention time. The mobile phase, run at a flow rate of 0.25 ml/min, consisted of 0.05% formic acid in water (A) water and 0.05% formic acid in acetonitrile (B) and was applied in a linear gradient elution. […] Samples were injected at 10 μL volume. The limits of quantification in plasma were 5 ng/mL for PQ and PQCG, and 1 ng/mL for CPQ. Quality control samples at 20 ng/mL were run at beginning and end of the batch analyses in duplicate. Intra-assay variability was less than 10%.
(§4) PQ, CPQ, and PQCG concentrations were transformed into their natural logarithms and analysed using a nonlinear mixed-effects modelling approach in NONMEM version 7.4 (Icon Development Solution, Ellicott city, MD). Pirana version 3.0.0 [15], Perl-speaks-NONMEM version 5.3.0 (PsN) [16] and R version 4.2.0 were used for automation, model evaluation, and diagnostics during the model building process. The first-order conditional estimation method with interaction (FOCE-I) was applied for the estimation method. Each compound was modelled separately. Data below the LLOQ was either omitted (M1-method) or incorporated by imputing the first LLOQ data as half of LLOQ (M6-method) [17].
(§5) Pharmacokinetic parameters were implemented as a log-normal distribution as follows: θi=θTV×expηi,θ where θi is the individual i th pharmacokinetic parameter estimate, θTV is the typical value of the population mean estimate, and ηi,θ is the inter-individual variability of the parameter θ for the i th individual, assumed to be normal distribution with zero mean and variance ω^2 . Estimated inter-individual variability below 10% was fixed to zero.
(§6) A linear association between capillary and venous plasma concentrations of all compounds was assumed and modelled using an estimated conversion factor at the population level. Unexplained residual errors were modelled separately for capillary and venous plasma concentrations and implemented as an additive error model on the log-transformed concentrations, equivalent to an exponential error on arithmetic scale.

[2] = cited from earlier work
haemoglobin = conditions: G6PD-deficient individual, cited from earlier work
clinical = conditions: male, human, plasma, po
Description: as §1, §2, §3, §4, §5, §6

[3] = G6PD-deficient individuals (n = 18)
[4] = G6PD-normal individuals (n = 10)
[5] = typical individual 62.5 kg, metabolites dosed as PQ molar dose 1:1
[6] = background statement, literature

For `COc1cc(NC(C)CCC(=O)O)c2ncccc2c1` (stereo not drawn) [Carboxy-primaquine], the “Correlation (regression slope) of AUC24 with change in haemoglobin” value (haemoglobin levels; [3]) was 195 (95% CI: -58.7 to 448) p = 0.123 % HB change per 1 ng·hr/mL, the “Correlation (regression slope) of CMAX with change in haemoglobin” value (haemoglobin levels; [3]) was 9.27 (95% CI: -1.25 to 19.8) p = 0.0803 % HB change per 1 ng/mL and the “Correlation (regression slope) of AUC24 with change in haemoglobin” value (haemoglobin levels; [4]) was -206 (95% CI: -555 to 143) p = 0.210 % HB change per 1 ng·hr/mL. The “Correlation (regression slope) of CMAX with change in haemoglobin” value (haemoglobin levels; [4]) was -4.63 (95% CI: -18.4 to 9.13) p = 0.460 % HB change per 1 ng/mL, the “Correlation (regression slope) of AUC24 with change in methaemoglobin” value (methaemoglobin levels; [3]) was -1914 (95% CI: -8430 to 4602) p-value = 0.534 % mHB change per 1 ng·hr/mL and the “Correlation (regression slope) of CMAX with change in methaemoglobin” value (methaemoglobin levels; [3]) was -49.4 (95% CI: -341 to 242) p-value = 0.719 % mHB change per 1 ng/mL. For the same molecule, the “Correlation (regression slope) of AUC24 with change in methaemoglobin” value (methaemoglobin levels; [4]) was 1948 (95% CI: -12127 to 16023) p-value = 0.720 % mHB change per 1 ng·hr/mL, the “Correlation (regression slope) of CMAX with change in methaemoglobin” value (methaemoglobin levels; [4]) was 119 (95% CI: -351 to 589) p-value = 0.521 % mHB change per 1 ng/mL and the “Half-life (terminal elimination)” value ([1]; n = 28) was 469 (325–1870) h. The “AUC24, area under the concentration-time curve up to 24 h” value ([1]; median (range), n = 28) was 8030 (1490–12,800) h × ng/mL, the “CMAX, maximum concentration” value ([1]; median (range), n = 28) was 338 (74.3–546) ng/mL and the “TMAX, time to maximum concentration” value ([1]; median (range), n = 28) was 4.57 (2.19–18.1) h. The “CF, proportional conversion factor between capillary and venous drug measurements, population estimate (%RSE)” value [1] was 69.1 (3.83%), the terminal elimination half-life ([1]; sampling only to 24 h) was “approximately 19.5 days” and the “MTT, absorption mean transit time, population estimate (%RSE)” value ([1]; typical individual 62.5 kg) was 1.24 (11.7%) h. For the same molecule, the “CL/F, apparent elimination clearance, population estimate (%RSE)” value [1, 5] was 0.129 (28.5%) L/h, the “VC/F, apparent volume of distribution of the central compartment, population estimate (%RSE)” value [1, 5] was 93.3 (7.00%) L and the “terminal half-life previously reported” value ([2]; healthy volunteers) was 15.6 h.
With `COc1cc(NC(C)CCCN)c2ncccc2c1` (stereo not drawn) [Primaquine, reference compound] the “haemoglobin decline after PQ administration” value (haemoglobin levels; in vivo) was “no significant haemoglobin declines”, the haematological safety (haemoglobin levels; in vivo, 0.5 mg/kg) was “haematologically safe” and the “Half-life (terminal elimination)” value ([1]; n = 28) was 7.42 (7.04–7.93) h. The “CF, proportional conversion factor between capillary and venous drug measurements, population estimate (%RSE)” value [1] was 32.9 (6.89%), the “MTT, absorption mean transit time, population estimate (%RSE)” value ([1]; typical individual 62.5 kg) was 0.563 (18.7%) h and the “CL/F, apparent elimination clearance, population estimate (%RSE)” value [1, 5] was 15.4 (9.57%) L/h. For the same molecule, the “predicted median reduction of haemoglobin” value (haemoglobin; 0.25 mg/kg SLD-PQ, 90% CI 0.12-0.65) was 0.35 g/dL, the “predicted median reduction of haemoglobin” value (haemoglobin; 0.40 mg/kg SLD-PQ, 90% CI 0.21-1.00) was 0.56 g/dL and the Tmax (clinical) was 0.872 h. For the same molecule, the half-life (clinical; Half-life (terminal elimination), median (range) in Table 3, single oral PQ 0.40-0.50 mg/kg, n = 28) was ~7.42 h, the bioavailability [2, 6] was 96% and the terminal half-life [2, 6] was 5 to 6 h.
